Tests used:
[1] = target: T1, interaction between PD-1 and PD-L1 (Homo sapiens, UniProt Q9NZQ7); assay: FRET assay (PD-1-YFP / SHP-2-CFP in CHO-K1 cells, activation with PD-L1); format: cell-based; details: co-transfected PD-1-SHP2 CHO-K1 cells, after addition of PD-L1 (10 µM)
T1 construct: expressed in transfected cells; host or cells: CHO-K1 co-transfected with PD-1-YFP and SHP-2-CFP
Description: Energy transfer between fluorescent molecules (FRET) is a technique that allows visualizing interactions between 2 fluorescent molecules. A fluorescent molecule, called "donor", will transfer its energy, once excited, to another fluorescent molecule called "acceptor". The fluorescence of the donor decreases while the acceptor's one increases (see Figure 1).
A model was developed using CHO-K1 cells involving overexpression of proteins of interest. It involves the expression of a PD-1-YFP fluorescent protein and a second fluorescent protein SHP-2-CFP (phosphatase recruited during the interaction between PD-1 and PD-L1).
A Spectramax i3 is configured according to the selected fluorochromes with their excitation and emission spectra. Endpoint reading is performed, at the center of the well; the reading time is 2 minutes for a 96-well plate.
For this test, a 96-well flat-bottomed white plate is required. All mixes introduced into the plate are made of triplicate. The negative control is provided by the CHO transfected by the void plasmid, the positive control is provided by CHO transfected with a plasmid containing the YFP-CFP fusion protein making it possible to mimic the FRET phenomenon. […] It is also necessary to remove the background noise, that is to say the FRET without activation with PD-L1. […] Nivolumab was taken as positive control of interaction's inhibitions.

hPD-L1-eGFP = target: T2, hPD-L1-eGFP (Homo sapiens, UniProt Q9NZQ7); assay: Microscale thermophoresis (MST) PD-L1 binding assay; details: CHO-K1 cell lysate, hPD-L1-eGFP 35 nM, PBS-T buffer (0.05% Tween 20)
T2 construct: expressed in transfected cells; host or cells: CHO-K1 (cell lysate used)
T2 sequence (Q9NZQ7 19-290): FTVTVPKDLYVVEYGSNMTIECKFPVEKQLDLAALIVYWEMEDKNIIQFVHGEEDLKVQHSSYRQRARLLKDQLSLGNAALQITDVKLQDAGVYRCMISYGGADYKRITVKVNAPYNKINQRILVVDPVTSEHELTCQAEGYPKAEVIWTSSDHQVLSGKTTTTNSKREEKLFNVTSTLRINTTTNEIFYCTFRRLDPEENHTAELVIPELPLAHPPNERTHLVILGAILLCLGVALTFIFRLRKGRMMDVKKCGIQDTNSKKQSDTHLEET
Description: The quantity of cells for this protocol can vary from 10 to 40 million. […] Different types of additives such as Tween 20, various MgCl2 concentrations, BSA have been tested to avoid sample aggregation and different types of capillaries have been investigated to reduce the adsorption within capillaries. Various buffers have also been tested and are listed in the related section. The fluorescence measurement is made using a small quantity of cell lysate within a capillary chosen among different available capillaries: standard, premium, hydrophilic or hydrophilic. The highest concentration of ligand must be at least 20 times higher than the expected dissociation constant of the interaction under study. However, the lowest concentration of ligand must be lower than the concentration of the fluorescent protein. An online tool created by NanoTemper® can be used and allows determining the range of ideal concentration. The concentration of the fluorescent protein can be determined using a GFP dosage kit (Abnova KA0911) or a calibration curve.
CHO-K1 cells were transfected with the Cell Line Nucleofector® Kit T, Program U-023 and the pcDNA 3.1 hygro plasmid expressing PD-1-eGFP. 2 µg of plasmid was transfected in one million CHO-K1 cells suspended in 100 µL Nucleofector solution. Cells were analyzed 48 hours post Nucleofection® by flow cytometry. Cells are put under the appropriate selective pressure which will only allow growth of cells containing the DNA insert. After three weeks of selective pressure, the multiparametric analysis of transfected CHO-K1 cells over-expressing mPD-1-eGFP allows defining sub-populations which can be separated from the global population. The population of cells strongly expressing eGFP is analyzed by flow cytometry and kept for MicroScale Thermophoresis analysis. The exact same protocol from transfection to cytometry analysis is lead on CHO-K1 cells expressing the hPD-L1-eGFP protein.
MST was used to establish the binding affinity between PD-L1-eGFP and Compounds. Cell lysate was diluted in PBS-T buffer (0.05% Tween 20) to a final concentration at which the fluorescent signals of the GFP proteins were similar and above the typical detection limit of the Monolith NT.115 instrument (NanoTemper Technologies). […] For the binding between hPD-L1-eGFP with compounds, several dilutions were made between 1mM to 1 nM to cover a wide concentration range. Ten microliters of cell lysate are added to 10 µL of each ligand solution. Nivolumab was taken as reference.

[2] = In vitro spread test (CFSE CellTrace cell proliferation, flow cytometry); format: cell-based; details: IC50 of proliferation, flow cytometry D0 to D3
Description: The CellTrace™ Cell Proliferation Kits provide versatile and well-retained cell tracing reagents in a convenient and easyto-use form. Each kit contains a CellTrace™ reagent in single-use vials to permit small scale experiments without preparing excess quantities of stock solution. The CellTrace™ reagents readily diffuse into cells and bind covalently to intracellular amines, resulting in stable, well-retained fluorescent staining that can be fixed with aldehyde fixatives. Excess unconjugated reagent passively diffuses to the extracellular medium, where it can be quenched with complete media and washed away. The kit is supplied by ThermoFisher Scientific.
• 1. Number of days on which the manipulation is done: 3 (from D0 to D3: 4 passages in cytometry) • 2. Volume of cell suspension needed: 2.5ml (0.5ml / day) • 3. Number of cells needed: 2.5mlx0.5M / ml = 1.25M per cell line. • 4. Number the cells and check their viability. • 5. Prepare the desired number of cells. • 6. Centrifuge, resuspend at a 1M/mL concentration in PBS (the probe binds to the proteins of the medium) • 7. Add 0.5µM of CellTrace (dilute 1/10 of the stock solution, add 1 / 1000th in the PBS-cell mix: take 1µl of probe at the main concentration, add 9µL of PBS) • 8. Incubate for 20 minutes at 37 ° C in the dark. • 9. Add 5 volumes of medium to capture the excess of probe (1.2x5 = 6ml) • 10. Incubate for 5 minutes at 37 ° C. • 11. Centrifuge, resuspend the cells at the desired concentration of 0.5M / ml in preheated medium. Plate 24 wells. • 12. Establish the J0 at least 5h after marking. • 13. Flow cytometry is then performed to evaluate cell division and to determine an IC50 of proliferation using Graphpad.

T1 sequence (Q9NZQ7 19-238 limits assumed): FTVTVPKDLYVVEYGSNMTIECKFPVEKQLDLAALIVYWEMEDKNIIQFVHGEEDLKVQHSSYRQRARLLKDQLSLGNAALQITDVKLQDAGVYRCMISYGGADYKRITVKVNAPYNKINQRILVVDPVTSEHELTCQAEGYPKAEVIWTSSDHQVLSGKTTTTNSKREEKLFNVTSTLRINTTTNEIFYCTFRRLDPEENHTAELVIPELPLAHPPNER

Compound | IC50 [1] | Kd (hPD-L1-eGFP) | IC50 [2] | In vitro spread test [2]
O=C1CC(C2CCCCCC2)=NN1c1ccc(Cl)cc1Cl | 67000 ± 9000 nM | 80000 ± 12000 nM | – | –
O=C1CC(c2ccccc2)=NN1c1ccc(Cl)cc1Cl | 9000 ± 5000 nM | 14000 ± 3000 nM | – | –
COc1ccc(C2=NN(c3cc(Cl)ccc3Cl)C(=O)C2)cc1 | 12000 ± 3000 nM | 8000 ± 2000 nM | – | –
COc1ccc(C2=NN(c3ccccn3)C(=O)C2)cc1 [ALIPD19, 3-(4-Methoxyphenyl) -1-(pyridin-2-yl)-4,5-dihydro-1H-5-pyrazolone] | 17 nM | 83 nM | 75 nM | –
COc1ccc(C2=NN(c3ccc(OC)cc3)C(=O)C2)cc1 [ALIPD24, 1-(4-methoxyphenyl)-3-(4-methoxyphenyl)-4,5-dihydro-1H-5-pyrazolone] | 230 ± 35 nM | 375 ± 43 nM | – | No effect
O=C1CC(c2ccc(Cl)cc2Cl)=NN1c1ccccn1 [ALIPD26, 3-(2,4-Dichlorophenyl)-1-(pyridin-2-yl)-4,5-dihydro-1H-5-pyrazolone] | 98 ± 12 nM | 110 ± 17 nM | – | –
O=C1CC(C23CC4CC(CC(C4)C2)C3)=NN1c1cc(Cl)cc(Cl)c1 [ALIPD28, 3-(Adamantan-1-yl)-1-(3,5-dichlorophenyl)-4,5-dihydro-1H-5-pyrazolone] | 785 ± 87 nM | 890 ± 75 nM | – | –
O=C1CC(c2ccc([N+](=O)[O-])cc2)=NN1c1ccc(Cl)cc1Cl [ALIPD33, 1-(2,4-Dichlorophenyl)-3-(4-nitrophenyl)-4,5-dihydro-1H-5-pyrazolone] | 43000 ± 6000 nM | 72000 ± 17000 nM | – | –
COc1ccc(C2=NN(c3ccc(Cl)cc3Cl)C(=O)C2)cc1OC [ALIPD52, 1-(2,4-Dichlorophenyl)-3-(3,4-dimethoxyphenyl)-4,5-dihydro-1H-5-pyrazolone] | 196 ± 17 nM | 212 ± 23 nM | – | –
O=C1CC(c2cccc(C(F)(F)F)c2)=NN1c1ccccn1 [ALIPD58, 1-(2-pyridyl)-3-[3-(trifluoromethyl)phenyl]-4,5-dihydro-1H-5-pyrazolone] | 1100 nM | 1200 nM | – | –
O=C1CC(c2ccc(Cl)cc2)=NN1c1ccccn1 [ALIPD59, 3-(4-chlorophenyl)-1-(2-pyridyl)-4,5-dihydro-1H-5-pyrazolone] | 33000 ± 7000 nM | 27000 ± 5000 nM | – | –
COc1ccccc1C1=NN(c2ccccn2)C(=O)C1 [ALIPD60, 3-(2-methoxyphenyl)-1-(2-pyridyl)-4,5-dihydro-1H-5-pyrazolone] | 7 nM | 23 nM | – | –
COc1ccc(C2=NN(c3cc(Cl)cc(Cl)c3)C(=O)C2)cc1 [ALIPX02, 1-(3,5-Dichlorophenyl)-3-(4-methoxyphenyl)-4,5-dihydro-1H-5-pyrazolone] | 15000 ± 5000 nM | 18000 ± 3000 nM | – | –
COc1ccc(C2=NN(c3ccc(Cl)cc3Cl)C(=O)C2)cc1 [ALIPX05, 1-(2,4-Dichlorophenyl)-3-(4-methoxyphenyl)-4,5-dihydro-1H-5-pyrazolone] | 51000 ± 3000 nM | 68000 ± 7000 nM | – | –
O=C1CC(C23CC4CC(CC(C4)C2)C3)=NN1c1ccccn1 [ALIPX57, 3-(Adamantan-1-yl)-1-(pyridin-2-yl)-4,5-dihydro-1H-5-pyrazolone] | 4 ± 2 nM | 340 ± 27 nM | 192 nM | –
